Consider 40 compounds from ChEMBL document CHEMBL1154460, “Tryptophan-containing dipeptide derivatives as potent PPARgamma antagonists: design, synthesis, biological evaluation, and molecular modeling” (Eur J Med Chem, 2008).

Assay [1] addresses T1, Peroxisome proliferator-activated receptor gamma (Homo sapiens, UniProt P37231).
T1 sequence (P37231 whole entry): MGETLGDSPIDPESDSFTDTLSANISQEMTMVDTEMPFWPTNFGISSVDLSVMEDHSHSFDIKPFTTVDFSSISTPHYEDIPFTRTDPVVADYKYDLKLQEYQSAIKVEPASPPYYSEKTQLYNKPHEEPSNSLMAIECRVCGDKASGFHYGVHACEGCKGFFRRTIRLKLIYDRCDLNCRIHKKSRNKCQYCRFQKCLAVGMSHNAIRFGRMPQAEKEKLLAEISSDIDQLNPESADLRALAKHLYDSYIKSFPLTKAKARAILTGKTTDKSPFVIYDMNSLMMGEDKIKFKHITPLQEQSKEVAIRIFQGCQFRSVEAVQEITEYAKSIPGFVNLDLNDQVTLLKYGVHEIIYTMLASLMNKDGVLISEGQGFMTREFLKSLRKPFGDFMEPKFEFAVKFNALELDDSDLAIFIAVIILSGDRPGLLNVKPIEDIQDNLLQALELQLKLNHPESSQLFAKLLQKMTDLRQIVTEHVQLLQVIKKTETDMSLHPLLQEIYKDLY
The assay is described as follows: Antagonist activity at human PPARgamma receptor expressed in Saccharomyces cerevisiae AH109 co-transfected with mouse CBP assessed as inhibition of rosiglitazone-induced LBD-CBP interaction by alpha-galactosidase based yeast two hybrid assay. Type of assay: functional.

The target of assay [2] is T2, Peroxisome proliferator-activated receptor gamma (Homo sapiens) (UniProt P37231).
T2 sequence (whole entry): T1 sequence (P37231 whole entry)
The assay is described as follows: Antagonist activity at human PPARgamma receptor expressed in Saccharomyces cerevisiae AH109 co-transfected with mouse CBP assessed as inhibition of rosiglitazone-induced LBD-CBP interaction at 10 uM by alpha-galactosidase based yeast two hybrid assay. Type of assay: functional.

Active and inactive are the calls of the source. The rule behind the calls is not given here. Non-standard residues stand in square brackets, D forms with d. Residues, ends and D or L forms follow the SMILES beside them. *: point of attachment. 2Nal = N[C@@H](Cc1ccc2ccccc2c1)C(=O)O; Aad = N[C@@H](CCCC(=O)O)C(=O)O; OBn = c1ccc(CO*)cc1

For orientation: IC50 means the midpoint of a concentration-inhibition curve. One may read the inhibition as how much of the control response was suppressed.

With `CC(C)(c1ccc(OCC2CO2)cc1)c1ccc(OCC2CO2)cc1` (configuration not stated), the IC50 in assay [1] was 100 µM. In the case of `O=C(Nc1ccccc1)c1cc([N+](=O)[O-])ccc1Cl`, in assay [1], the IC50 stood at 3.3 µM. With `N[C@@H](Cc1c[nH]c2ccccc12)C(=O)N[C@@H](CCC(=O)O)C(=O)O`, in assay [2], the inhibition turned out to be 43.2%. For the same compound, the IC50 in assay [1] was found to be 8.67 µM. On to `O=C(O)C(Oc1cccc(C(F)(F)F)c1)c1ccc(Cl)cc1` (configuration not stated), for which the IC50 in assay [1] came out at 0.22 µM. Consider `C=CCn1cc([N+](=O)[O-])s/c1=N\C(=O)C(C)(C)C`, for which the IC50 in assay [1] came out at 0.82 µM. `N[C@@H](Cc1c[nH]c2ccccc12)C(=O)N[C@@H](CC(=O)O)C(=O)O`: the inhibition in assay [2] amounted to 57.8%. Besides, the IC50 in assay [1] was found to be 5.2 µM. In the case of `COC(=O)CCC[C@H](NC(=O)[C@H](N)Cc1ccccc1)C(=O)OC`, in assay [2], the inhibition result was “inactive”. Regarding `COC(=O)CC[C@@H](NC(=O)[C@@H](N)Cc1c[nH]c2ccccc12)C(=O)OC`, the inhibition entry in assay [2] is “inactive”. Consider `COC(=O)CC[C@H](NC(=O)[C@@H](N)Cc1c[nH]c2ccccc12)C(=O)OC`, for which the inhibition in assay [2] was determined as 4.05%.

With `COC(=O)CC[C@H](NC(=O)[C@@H](N)Cc1ccccc1)C(=O)OC`, the inhibition in assay [2] stood at 3.99%. The same measure, in the same setting: the same measure for `COC(=O)CC[C@H](NC(=O)[C@H](N)Cc1ccccc1)C(=O)OC`: “inactive”; for `COC(=O)C[C@H](NC(=O)[C@H](N)Cc1ccccc1)C(=O)OC`: “inactive”; for `COC(=O)[C@H](C)NC(=O)[C@@H](N)Cc1ccccc1`: “inactive”. As for `COC(=O)[C@H](CC(C)C)NC(=O)[C@H](N)Cc1ccccc1`, the inhibition entry in assay [2] was “inactive”. In the case of `N[C@@H](Cc1c[nH]c2ccccc12)C(=O)N[C@H](CC(=O)O)C(=O)O`, the inhibition in assay [2] amounted to 15.5%. Consider `N[C@@H](Cc1c[nH]c2ccccc12)C(=O)N[C@H](CCC(=O)O)C(=O)O`, for which the inhibition in assay [2] worked out at 0.4%. As to `N[C@@H](Cc1c[nH]c2ccccc12)C(=O)N[C@H](CCC(=O)OCc1ccccc1)C(=O)OCc1ccccc1`, the inhibition result in assay [2] was “inactive”. Regarding `N[C@H](Cc1c[nH]c2ccccc12)C(=O)N[C@@H](CC(=O)O)C(=O)O`, the inhibition in assay [2] was found to be 0.68%. On the same count and under the same terms, as for `N[C@H](Cc1c[nH]c2ccccc12)C(=O)N[C@H](CC(=O)O)C(=O)O`, the figure is 0.42%. Still for that read-out and setting: as for `N[C@@H](Cc1ccccc1)C(=O)N[C@@H](CC(=O)OCc1ccccc1)C(=O)OCc1ccccc1` (H-Phe-Asp(OBn)-OBn), the entry is “inactive”; as for `N[C@@H](Cc1ccccc1)C(=O)N[C@@H](CC(=O)O)C(=O)O` (H-Phe-Asp-OH), 1.12%. With `N[C@@H](Cc1ccccc1)C(=O)N[C@@H](CCC(=O)OCc1ccccc1)C(=O)OCc1ccccc1` (H-Phe-Glu(OBn)-OBn), the inhibition entry in assay [2] was “inactive”. Same read-out and setting: the same measure for `N[C@@H](Cc1ccccc1)C(=O)N[C@@H](CCC(=O)O)C(=O)O` (H-Phe-Glu-OH): 4.3%. With `N=C(N)NCCC[C@H](NC(=O)[C@@H](N)Cc1c[nH]c2ccccc12)C(=O)O` (H-Trp-Arg-OH), the inhibition in assay [2] amounted to 45%. Besides, the IC50 in assay [1] was 15.4 µM. For `NC(=O)C[C@H](NC(=O)[C@@H](N)Cc1c[nH]c2ccccc12)C(=O)O` (H-Trp-Asn-OH), the inhibition in assay [2] stood at 36.3%. Also, the IC50 in assay [1] came out at 18.4 µM.

For `N[C@@H](Cc1c[nH]c2ccccc12)C(=O)N[C@@H](CC(=O)OCc1ccccc1)C(=O)OCc1ccccc1` (H-Trp-Asp(OBn)-OBn), in assay [2], the inhibition is 5.33%. In the case of `COC(=O)C[C@H](NC(=O)[C@@H](N)Cc1c[nH]c2ccccc12)C(=O)OC` (H-Trp-Asp(OMe)-OMe), in assay [2], the inhibition entry was “inactive”.

For the compound `NC(=O)CC[C@H](NC(=O)[C@@H](N)Cc1c[nH]c2ccccc12)C(=O)O` (H-Trp-Gln-OH), the inhibition in assay [2] came out at 38.6%. For the same compound, in assay [1], the IC50 came to 18.7 µM. With `CC(C)C[C@H](NC(=O)[C@@H](N)Cc1c[nH]c2ccccc12)C(=O)OCc1ccccc1` (H-Trp-Leu-OBn), in assay [2], the inhibition entry was “inactive”. As to `CC(C)C[C@H](NC(=O)[C@@H](N)Cc1c[nH]c2ccccc12)C(=O)O` (H-Trp-Leu-OH), the inhibition in assay [2] was 58.2%. Besides, in assay [1], the IC50 stood at 25.8 µM.

In the case of `COC(=O)[C@H](CC(C)C)NC(=O)[C@@H](N)Cc1c[nH]c2ccccc12` (H-Trp-Leu-OMe), the inhibition in assay [2] stood at 5.29%.

As to `COC(=O)CCC[C@H](NC(=O)[C@@H](N)Cc1c[nH]c2ccccc12)C(=O)OC` (H-Trp-[Aad](OMe)-OMe), the inhibition in assay [2] came to 8.74%.

On to `N[C@@H](Cc1c[nH]c2ccccc12)C(=O)N[C@@H](CCCC(=O)O)C(=O)O` (H-Trp-[Aad]-OH), for which, in assay [2], the inhibition was found to be 70%. In addition, the IC50 in assay [1] worked out at 15.1 µM.

As to `COC(=O)CC[C@H](NC(=O)[C@@H](N)Cc1ccc(OC)cc1)C(=O)OC` (H-Tyr(Me)-Glu(OMe)-OMe), in assay [2], the inhibition was 5.26%. With `N[C@@H](Cc1ccc2ccccc2c1)C(=O)N[C@@H](CCC(=O)OCc1ccccc1)C(=O)OCc1ccccc1` (H-[2Nal]-Glu(OBn)-OBn), the inhibition in assay [2] was found to be 27.7%. On the same count and under the same terms, as for `COC(=O)CC[C@H](NC(=O)[C@@H](N)Cc1ccc2ccccc2c1)C(=O)OC` (H-[2Nal]-Glu(OMe)-OMe), the figure is 14.7%; as for `N[C@@H](Cc1ccc2ccccc2c1)C(=O)N[C@@H](CCC(=O)O)C(=O)O` (H-[2Nal]-Glu-OH), 2.1%. On the same count and under the same terms, as for `COC(=O)[C@H](CC(C)C)NC(=O)[C@@H](N)Cc1ccc2ccccc2c1` (H-[2Nal]-Leu-OMe), the figure is 4.34%. In the case of `CC(=O)NCCOC(=O)C(Oc1cccc(C(F)(F)F)c1)c1ccc(Cl)cc1` (configuration not stated) [HALOFENATE], the IC50 in assay [1] was 40 µM. Regarding `COP(=O)(OC)OC(c1ccc(Cl)cc1)P(=O)(OC)OC` (configuration not stated) [MIFOBATE], in assay [1], the IC50 was determined as 140 µM.
